Test results from PubChem BioAssay AID1329 (NMMLSC, 2008).
Active and inactive are the calls of the source. No rule for the calls is given here.

target: Induced myeloid leukemia cell differentiation protein Mcl-1 (Homo sapiens) (UniProt Q07820); assay: Mcl-1/Bim interaction regulators – biochemical, bead-based flow cytometry, multiplexed, human, dose response (AID 1329); details: Bim peptide-Mcl-1 binding, MCF
Sequence (Q07820 whole entry, looked up): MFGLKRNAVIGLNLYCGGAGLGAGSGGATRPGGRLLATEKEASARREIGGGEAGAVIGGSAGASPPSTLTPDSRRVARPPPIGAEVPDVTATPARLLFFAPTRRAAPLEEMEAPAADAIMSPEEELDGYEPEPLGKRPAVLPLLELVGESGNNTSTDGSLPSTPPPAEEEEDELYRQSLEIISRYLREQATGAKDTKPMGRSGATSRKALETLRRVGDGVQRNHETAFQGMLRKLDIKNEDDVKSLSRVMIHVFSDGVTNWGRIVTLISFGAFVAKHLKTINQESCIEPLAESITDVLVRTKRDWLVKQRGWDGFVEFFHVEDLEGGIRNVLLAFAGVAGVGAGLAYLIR

| SMILES | EC50 |
| --- | --- |
| COc1cc(/C=N/Nc2nn3cnnc3c3ccccc23)ccc1O | inactive |

same assay, conditions: Bim peptide-Mcl-1 binding, MCF

| SMILES | percent span |
| --- | --- |
| CN(C)C(Cc1ccccc1)C(=O)c1cccs1 (stereo not drawn) | inactive |
| CCNC(=S)Nc1ccc(OCC)cc1 | inactive |
| CC(C)COC(=O)/C(C#N)=C/c1cn(Cc2ccccc2)c2ccccc12 | inactive |
| NC(=O)c1c(N)sc2c1CCCCC2 | inactive |
| COc1ccc(C2CN(C)CC2C(=O)c2ccc(F)cc2)cc1Cl (stereo not drawn) | inactive |
| CS(=O)(=O)NN1C(=O)c2ccccc2NC1c1ccccc1 (stereo not drawn) | inactive |
| CCN(CC)S(=O)(=O)c1cccc(C(=O)N/N=C/c2ccc(O)c(O)c2O)c1 | inactive |
| Cc1ccc(C)n1-c1ccc(N2CCOCC2)cc1 | inactive |
| COc1cc(N=c2ssnc2Cl)c(OC)cc1Cl | inactive |
| O=C(OCC(=O)c1ccc[nH]1)c1ccccc1 | inactive |
| CCOC(=O)C1CCN(C(=O)Nc2ccc3nc(-c4ccco4)c(-c4ccco4)nc3c2)CC1 | inactive |
| Cc1ccc(-c2nnc(Cc3ccc(Cl)cc3)o2)cc1 | inactive |
| COc1ccc2oc(-c3ccccc3)c(C(=O)N3CCOCC3)c2c1 | inactive |
| CCNC(=O)N1c2ccc(OCC)cc2C(C)=CC1(C)C | inactive |
| CCN1CCN(c2ccc(NC(=O)c3ccc4c(c3)[nH]c(=O)n4Cc3ccc(OC)cc3)cc2)CC1 | inactive |
| CN1/C(=C\C(=O)Nc2ccc(Cl)cc2)C(C)(C)c2ccccc21 | inactive |
| COc1cc(CNc2ccc(N3CCCC3)cc2)cc(Cl)c1OC | inactive |
| Cc1ccc(/C=C2\CCCC3=C2NC(=S)NC3c2ccc(C)cc2)cc1 (stereo not drawn) | inactive |
| CCCCC(C(=O)OCC)C(N)Cc1ccc(F)cc1 (stereo not drawn) | inactive |
| O=C(CSc1ccc(-c2ccccc2)nn1)NCc1ccco1 | inactive |
| c1cncc(-c2nnc3n2N=C(c2cccs2)CS3)c1 | inactive |
| O=C(CSc1nnc(-c2cccs2)n1Cc1ccco1)c1ccc2c(c1)OCO2 | inactive |
| Cc1ccc(-n2nc(C)c(C(=O)O)n2)c(C)c1 | inactive |
| Cc1ccc(-c2cc(-c3ccc(C)o3)nc(N)c2C#N)cc1 | inactive |
| Cc1ccc(NC2=C(Cl)C(=O)c3ccccc3C2=O)cc1 | inactive |
| Cc1ccc(C(=O)CCC(=O)Nc2ccc(Cl)c(S(=O)(=O)Nc3cccc(Cl)c3)c2)cc1 | inactive |

| SMILES | percent span |
| --- | --- |
| OCCN1CCN(CCCc2c3c(cc4c2CCC4)CCC3)CC1 | inactive |
| CCOC(=O)CSC1=NC(=O)/C(=C/c2ccc(OC)cc2)S1 | inactive |
| COc1ccc(/C=C2\SC(=O)NC2=S)cc1OC | inactive |
| O=C1c2ccccc2-c2onc3ccc(NCCCn4ccnc4)c1c23 | inactive |
| CCOC(=O)CSC1=NC(=O)/C(=C/c2ccc(Br)cc2)S1 | inactive |
| CCCn1c(C)cc(-c2csc(N)n2)c1C | inactive |
| CSc1nnc2c3cc(C)ccc3n(Cc3ccccc3)c2n1 | inactive |
| CN=C(NC1CCCCC1)c1ccc(Cl)cc1 | inactive |
| Cc1ccc(NN2C(=O)C=CC2=O)cc1 | inactive |
| Cc1ccc(-n2c(CSc3nc(C)cc(C)n3)nnc2SCC(=O)NCc2ccco2)cc1 | inactive |
| COc1cc2c(cc1OC)C(c1ccccc1F)OC(=O)C2 (stereo not drawn) | inactive |
| O=C1NC(=O)C(=Cc2ccc(-c3cc(Cl)ccc3[N+](=O)[O-])o2)C(=O)N1 | inactive |
| COc1cc(CNc2ccc3[nH]c(=O)[nH]c3c2)cc(Br)c1OCC(=O)NC(C)(C)C | inactive |
| O=C(Nc1cccc(Cl)c1)Nc1ccc(Cl)cn1 | inactive |
| CC1C=CCC2C(=O)N(c3ccc(OC(=O)c4cccs4)cc3)C(=O)C12 (stereo not drawn) | inactive |
| O=[N+]([O-])c1ccc2[nH]nc(-c3ccccc3)c2c1 | inactive |
| COc1cccc(NC(=O)CSc2nncn2N)c1 | inactive |
| COC(=O)c1cccc(-n2c(C)cc(C=O)c2C)c1 | inactive |
| CCNCc1cc(Br)c(OCC(=O)Nc2ccccc2)c(OC)c1 | inactive |
| O=C1NCCN1C(=O)N(c1ccccc1)c1ccccc1 | inactive |
| CCOc1ccccc1/C=N/NC(=O)CNC(=O)COc1ccccc1 | inactive |
| CNc1ccc(Br)cc(C(=O)/C=C/c2ccc(OC)cc2)c1=O | inactive |
| C/C(=N\NC(=O)COc1ccc(C(C)(C)C)cc1)c1ccc2c(c1)OCCO2 | inactive |
| CCN(CC)c1ccc(-c2nn3c(-c4n[nH]c5c4CCC5)nnc3s2)cc1 | inactive |
| CN(Cc1cccs1)C(=O)CCc1c[nH]c2ccccc12 | inactive |
| O=C(c1ccc(CNS(=O)(=O)c2ccc(Br)cc2)cc1)N1CCCC1 | inactive |

| SMILES | percent span |
| --- | --- |
| Cc1ccc(C)c(/C=C/C(=O)c2ccccc(=O)c2O)c1 | inactive |
| CCN(CC)c1ccc(NC(=O)c2ccc(=O)[nH]c2)cc1S(=O)(=O)Nc1ccccc1OC | inactive |
| O=C(c1cnccn1)N(Cc1cccs1)C1(C(=O)NC2CCCCC2)CCCCC1 | inactive |
| O=C(CSc1nnc(-c2ccccc2)c(-c2ccccc2)n1)N1CCc2ccccc21 | inactive |
| Cc1cc(-c2nn(-c3ccccc3)cc2/C=C2\SC(N)=NC2=O)ccc1OC(C)C | inactive |
| Cn1c(=O)[nH]c(=O)c2c1nc(N1CCOCC1)n2CCSc1nc2ccccc2[nH]1 | inactive |
| COC(=O)CCC(=O)Nc1sc(Cc2ccccc2)c(C)c1C(N)=O | inactive |
| CCOC(=O)C1=C(Cc2ccc(OC)cc2)C(=O)c2ccccc2C1=O | inactive |
| CC(C)C(=O)N1CCN(c2ccc([N+](=O)[O-])cc2Cl)CC1 | inactive |
| O=C(O)c1ccccc1NSc1ccccc1[N+](=O)[O-] | inactive |
| OC(COc1ccc2ccccc2c1)CN1CCCC1 (stereo not drawn) | inactive |
| O=C(CC1NCCNC1=O)Nc1cccc([N+](=O)[O-])c1 (stereo not drawn) | inactive |
| Cc1nnc(Sc2cc(NCCO)c([N+](=O)[O-])c3nonc23)s1 | inactive |
| COc1ccc(-n2c(SCC(=O)Nc3ccc(C(=O)O)cc3)nnc2-c2cccs2)cc1 | inactive |
| CCC(=O)OCCNc1cc(Sc2nc3ccccc3[nH]2)c2nonc2c1[N+](=O)[O-] | inactive |
| CCOC(=O)c1sc(NC(=O)c2ccncc2)c(C#N)c1C | inactive |
| Clc1nssc1=Nc1ccccc1 | inactive |
| O=C(Nc1ccc(N2CCOCC2)cc1)Nc1ccc2nc(-c3ccco3)c(-c3ccco3)nc2c1 | inactive |
| CCN1/C(=C\c2ccc3cc(C)ccc3[n+]2CC)Sc2cc(C)c(C)cc21 | inactive |
| Cc1cccc(-n2c(-c3ccncc3)n[nH]c2=S)c1 | inactive |
| COc1ccc(S(=O)(=O)NCCOc2cccc3cccnc23)cc1OC | inactive |
| CCOC(=O)C1CCCN(c2ncnc3c2cnn3-c2cccc(C)c2)C1 (stereo not drawn) | inactive |
| COc1ccc(C(=O)/C=C/c2cc(OC)c(O)c(OC)c2)c(F)c1 | inactive |
| COc1ccccc1NC(=O)CSc1ncn(-c2ccccc2)n1 | inactive |
| Cc1cc(C(=O)NCCCN(C)C)c2ccccc2n1 | inactive |
